These results are taken from US20230092005A1, “COMPOSITIONS AND METHODS FOR TREATING CANCER AND TUMOR” (OBLATO, INC., priority 2020, published 2023).

Usually solubility stands for the dissolved amount per volume that the medium holds.

The nature of data set [1]: Solubility in water. Type of data set: physicochemical. The note with it: free acid. The method, then:
In certain embodiments, the 2,4-ds-PBN can be prepared by a two-step reaction sequence. For example, tertiary butyl […] (2-methyl-2-nitropropane) can be converted to the corresponding n-hydroxylamine using a suitable catalyst such as an activated zinc/acetic acid catalyst or an aluminum/mercury amalgam catalyst. This reaction can be carried out in about 0.5 to 12 hours and especially about 2 to 6 hours or so at a temperature of about 15-100° C. in a liquid reaction medium such as alcohol/water mixture in the case of the zinc catalyst or an ether/water mixture in the case of the aluminum amalgam catalyst. The freshly formed hydroxylamine can be reacted with 4-formyl-1,3-benzenedisulfonic acid, with a slight excess of the amine being used. This reaction can be carried out at similar temperature conditions. This reaction can be completed in from about 10 to about 24 hours. The formed material through the two reactions can be the free acid and be characterized by a molecular weight of 337.3 g/mole. In some embodiments, the formed material can be a white powdery material that decomposes upon heating. In non-limiting embodiments, the formed material can be characterized by solubility in water of greater than 1 gram/ml and a^1H NMR spectrum in D2O of 8.048 ppm (dd, 8.4, 1.7 Hz); 8.836 ppm (d, 8.4 Hz); 8.839 ppm (d, 1.7 Hz); 8.774 ppm (s).

Data set [2] has as its system human A549 lung cancer xenografts. The experiment in a line: Anti-cancer efficacy in nude mice carrying human A549 lung cancer xenografts (tumor volume, tumor weight, growth inhibition rate). The data set is classed as in vivo, BALB/c Nude mouse. The note with it: for Tumor volume (mean): G5, 2 mg/kg I.P. once a week. The protocol:
The anti-cancer efficacy of OKN-007 was assessed after oral administration in nude mice carrying human A549 lung cancer xenografts implanted subcutaneously in the flank. Human lung cancer cell line, A549 was used. […] The frozen cells were thawed in a water bath. Cells were placed in a tube containing the medium and centrifuged (1,000 rpm, 5 minutes) to discard the supernatant. After re-suspending with the culture medium, cells were placed in a cell culture flask and incubated in a 5% CO2 incubator at 37° C. Cells were sub-cultured at a ratio of 1:5 when grown with confluency of 70-80% in the culture container. Cells cultured on the day of cell line transplantation were centrifuged (1,000 rpm, 5 minutes) to discard the supernatant and to make cell suspension with D-PB S. Then, the cell suspension was mixed with Matrigel at a ratio of 1:1 (5×10^7 cells/mL). BALB/c Nude mouse, [NT]-Foxnlnu/CrlOri, SPF was used. Sex, number, age, and body weight range of animals at receipt: The mice (65 mice) were male, 5 weeks old, and had about 14.5-19.6 g weight at the receipt. Cell transplantation: After the quarantine-acclimation period, the body weight measurement and cell transplantation in healthy animals were performed. […] Prepared cell (1×10^7 cells/0.2 mL) suspension was injected subcutaneously into the right flank with disposable syringes. […] Group assignment: After transplanting cells, each tumor size was monitored for 65 animals. When tumor volume reached within 87-112 mm^3, 50 animals were assigned to the respective groups with an average tumor volume of about 99 mm^3. Based on the tumor volume, animals were selected and randomly distributed into 5 groups (10 animals/group). Dosing Route: Oral administration. The route of administration was oral because the clinical application of the test substance is oral. Method and frequency of administration: For negative control and test substance, oral administration was performed once a day for 4 weeks for a total of 28 times using a disposable syringe. For positive control, intraperitoneal administration was performed once a week for 4 weeks for a total of 4 times using a disposable syringe. Dosing Route: The dose levels of the test substance were selected at 150, 300, and 600 mg/kg. The dose level of the positive substance was selected at 2 mg/kg. The dose volume was selected at 10 mL/kg for all groups, and the individual dose was calculated based on the bodyweight of animals just prior to dosing. Measurement of tumor volume: The largest diameter (a) and the smallest diameter (b) of each tumor were measured using calipers twice a week during the observation period. The tumor volume (TV) was calculated twice a week according to the following formula: TV (mm^3)=(a (mm)×b^2 (mm^2))/2. The volume of a tumor before administration to each animal was set to the value measured at the time of group assignment. Tumor removal and measurement of body weight: After the observation period, animals were anesthetized by inhalation of isoflurane. After the tumor was extracted, the weight of the removed tumor was recorded. The tumor growth inhibition rate (IR) was calculated using the following formula: IR (%)=(1-T/C)×100, where T is a mean tumor weight in the test substance group, and positive substance group, and C is a mean tumor weight in the negative control group.
(A xenograft is tissue or cells of one species grown in another, often human tumour cells in immunodeficient mice.)

Data set [3] shares this test system. The experiment in a line: TUNEL staining of extracted A549 xenograft tumors (apoptosis counting and grading). The note with it: for Apoptosis counting No. (group mean ± S.D.): TUNEL positive cells per 1 mm^2; for Number of apoptotic cells in the tumor compared to the negative control group (G1): G5, 2 mg/kg, TUNEL. Type of data set: in vivo, BALB/c Nude mouse. From the text: Histopathological test: The extracted tumors were fixed in 10% neutral buffered formalin solution (10% neutral buffered formalin). After sectioning the tumors to a certain thickness (about 3 mm), those were subjected to the general preparation procedure, embedded in paraffin, cut into 4 to 5 μm size, and tissue sections were stained with Hematoxylin and Eosin (H&E) and TUNEL. IHC (Immunohistochemistry) slides, cut into 4 to 5 μm size, were produced and sent to the sponsor (Negative Control Group (G1), Test substance 2 (G3, Animal ID Nos.: 1301, 1302, 1303, 1307, 1310), Test substance 3 (G4, Animal ID Nos.: 1401, 1402, 1404, 1408, 1409)). Determination of TUNEL staining results: After histological examination of the entire cross-section of the tumor for grading (±, +, ++, +++, ++++) of apoptosis, the nucleated brown stained cells were read as […] was counted. The apoptosis of the tumor was determined by the number of positive cells per […] (1 mm^2). The apoptosis of the tumor was determined by calculating the average number of positive cells and graded into the corresponding severity. The number of positive cells in which apoptosis occurred was determined by counting the number of positive cells per unit area (1 mm^2). Histopathological test (Table 7, FIGS. 7-11): The extracted fixed tumor was cut to a certain thickness (about 3 mm), then subjected to general tissue treatment, paraffin-embedded to produce blocks, and tissue sections of 4 to 5 μm in size were prepared. Then, Hematoxylin & Eosin (H&E) staining and TUNEL staining were performed.

For data set [4] the test system is unchanged. The experiment in a line: Hematoxylin & Eosin (H&E) staining of extracted A549 xenograft tumors (necrosis grading). Type of data set: in vivo, BALB/c Nude mouse. From the text: Histopathological test: The extracted tumors were fixed in 10% neutral buffered formalin solution (10% neutral buffered formalin). After sectioning the tumors to a certain thickness (about 3 mm), those were subjected to the general preparation procedure, embedded in paraffin, cut into 4 to 5 μm size, and tissue sections were stained with Hematoxylin and Eosin (H&E) and TUNEL. IHC (Immunohistochemistry) slides, cut into 4 to 5 μm size, were produced and sent to the sponsor (Negative Control Group (G1), Test substance 2 (G3, Animal ID Nos.: 1301, 1302, 1303, 1307, 1310), Test substance 3 (G4, Animal ID Nos.: 1401, 1402, 1404, 1408, 1409)). Determination of Hematoxylin & Eosin (H&E) staining results: Necrosis of tumors was assessed by grading (±, +, ++, +++, ++++) the extent of necrosis in the whole section of the tumor. Necrosis was evaluated by morphological changes such as collapse or disappearance of the nucleus and eosinophilic change of cytoplasm. The extent of tumor necrosis was determined by the percentage of the following necrosis area. Histopathological test (Table 7, FIGS. 7-11): The extracted fixed tumor was cut to a certain thickness (about 3 mm), then subjected to general tissue treatment, paraffin-embedded to produce blocks, and tissue sections of 4 to 5 μm in size were prepared. Then, Hematoxylin & Eosin (H&E) staining and TUNEL staining were performed.

In data set [1], `CC(C)(C)/[N+]([O-])=C\c1ccc(S(=O)(=O)O)cc1S(=O)(=O)O` [2,4-ds-PBN, 2,4-disulfonyl a-phenyl tert-butyl nitrone] returned a solubility above 1000 mg/mL.
Turning to `N.N.[Cl][Pt][Cl]` [cisplatin, Cis-Diammineplatinum (II) dichloride, reference compound], in data set [2] (G5, 2 mg/kg I.P. once a week for 4 weeks, tumors weighed at day 29), the “Tumor weights (mean)” value is listed as 0.37 g. Besides, the “Tumor volume (mean)” value in data set [2] (day 1 (before administration)) is listed as 99 mm^3; in data set [2] (day 5 after administration), 152 mm^3; in data set [2] (day 8 after administration), 171 mm^3; in data set [2] (day 12 after administration), 176 mm^3; in data set [2] (day 15 after administration), 199 mm^3; in data set [2] (day 19 after administration), 250 mm^3. Further, the figures for the “Tumor volume (mean)” value in data set [2] (day 22 after administration), in data set [2] (day 26 after administration) and in data set [2] (day 29 after administration) were 314 mm^3, 385 mm^3 and 481 mm^3, respectively. Also, the “Tumor growth inhibition rate (IR)” value in data set [2] (G5, 2 mg/kg I.P., IR=(1-T/C)x100 from mean tumor weights, day 29) was 59.8%. The “Tumor volume and size compared to the negative control” value in data set [2] (G5, 2 mg/kg, end of the observation period) is “statistically significant decrease in tumor volume and size”. Besides, the “Apoptosis grade + : number of animals” value in data set [3] (G5, 2 mg/kg I.P., N=10) is 2. In addition, in data set [3] (G5, 2 mg/kg I.P., N=10), the “Apoptosis grade ++ (moderate): number of animals” value turned out to be 0. In addition, the “Apoptosis grade +++ (marked): number of animals” value in data set [3] (G5, 2 mg/kg I.P., N=10) is 0. The “Apoptosis grade ++++ (severe): number of animals” value in data set [3] (G5, 2 mg/kg I.P., N=10) is on record as 0. Also, the “Apoptosis grade ± (minimal): number of animals” value in data set [3] (G5, 2 mg/kg I.P., N=10) is recorded as 8. Moreover, the “Apoptosis counting No. (group mean ± S.D.)” value in data set [3] (G5, 2 mg/kg I.P.) is 87.5 ± 50.6 No./mm^2; in data set [3] (G5, 2 mg/kg I.P., listed as Cisplatin) it was 87.5±50.6 No./mm^2. Besides, the figures for the “Number of apoptotic cells in the tumor compared to the negative control group (G1)” value in data set [3] and in data set [3] (listed as Cisplatin) were “significant increase in the number of apoptotic cells” and “no statistically significant difference”, respectively. Further, the “Necrosis grade + : number of animals” value in data set [4] (G5, 2 mg/kg I.P., N=10) was 2. For the same compound, the “Necrosis grade ++ (moderate): number of animals” value in data set [4] (G5, 2 mg/kg I.P., N=10) is reported as 2. For the same compound, the “Necrosis grade +++ (marked): number of animals” value in data set [4] (G5, 2 mg/kg I.P., N=10) is 0. In addition, in data set [4] (G5, 2 mg/kg I.P., N=10), the “Necrosis grade ++++ (severe): number of animals” value is listed as 0. In addition, the “Necrosis grade ± (minimal): number of animals” value in data set [4] (G5, 2 mg/kg I.P., N=10) is recorded as 6. In data set [4] (G5, 2 mg/kg, H&E), the “Severity of necrosis compared to the negative control group (G1)” value was “does not significantly different”.
